# Source: ChEMBL document CHEMBL5331119, “Basic Nitrogen (BaN) Is a Key Property of Antimalarial Chemical Space” (J Med Chem, 2023)
# Key:
# Plasmodium falciparum [1] = assay: Antiplasmodial activity against Plasmodium falciparum K1 assessed as inhibition of parasite growth by microdilution analysis; assay type: functional, organism-based
# Plasmodium falciparum [2] = assay: Antiplasmodial activity against Plasmodium falciparum NF54 assessed as inhibition of parasite growth by microdilution analysis; assay type: functional, organism-based
# [3] = target: human dihydroorotate dehydrogenase (DHODH), mitochondrial (Homo sapiens, UniProt Q02127); assay: in vitro
# human dihydroorotate dehydrogenase (DHODH), mitochondrial, sequence (Q02127 whole entry): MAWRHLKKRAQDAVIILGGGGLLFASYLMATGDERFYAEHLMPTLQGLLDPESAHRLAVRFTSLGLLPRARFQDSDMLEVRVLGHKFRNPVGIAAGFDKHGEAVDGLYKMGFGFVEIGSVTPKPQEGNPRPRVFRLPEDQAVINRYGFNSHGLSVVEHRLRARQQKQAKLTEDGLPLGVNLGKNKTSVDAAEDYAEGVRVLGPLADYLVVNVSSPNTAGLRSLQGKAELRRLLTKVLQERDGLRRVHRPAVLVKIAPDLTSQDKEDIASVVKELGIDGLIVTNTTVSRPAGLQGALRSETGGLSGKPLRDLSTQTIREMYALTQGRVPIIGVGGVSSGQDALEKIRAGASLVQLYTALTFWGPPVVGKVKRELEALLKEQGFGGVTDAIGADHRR
# Description: Inhibition of human DHODH
# Plasmodium falciparum [4] = assay: Antiplasmodial activity against Plasmodium falciparum 3D7; assay type: functional, organism-based
# Plasmodium falciparum [5] = assay: Antiplasmodial activity against Plasmodium falciparum NF54 incubated for 48 hrs by lactate dehydrogenase assay; assay type: functional, organism-based; details: NF54, 48 h
# Plasmodium falciparum [6] = assay: Antimalarial activity against Plasmodium falciparum FcB1; assay type: functional, organism-based
smiles,measurement,setting,value
CCN(CC)CCCC(C)Cc1ccnc2cc(Cl)ccc12 (stereo not drawn),IC50,Plasmodium falciparum [1],3 µM
same,IC50,Plasmodium falciparum [2],3 µM
CCN(CC)CCCC(C)Nc1cccc2cc(Cl)ccc12 (stereo not drawn),IC50,Plasmodium falciparum [1],3 µM
same,IC50,Plasmodium falciparum [2],3 µM
Cc1c(Cc2cnc(C(F)(F)F)nc2)c[nH]c1C(=O)NC1CC1,IC50,[3],> 100 µM
CCOC(=O)c1[nH]c(C)c(Cc2ccc(C(F)(F)F)nc2)c1C,IC50,[3],> 100 µM
same,EC50,Plasmodium falciparum [4],0.009 µM
CCOC(=O)c1[nH]c(C)c(Cc2ccc(C(F)(F)F)cc2)c1C,IC50,[3],> 100 µM
same,EC50,Plasmodium falciparum [4],0.061 µM
Cc1[nH]c(C(=O)NC2CC2)c(C)c1Cc1ccc(C(F)(F)F)nc1,IC50,[3],> 100 µM
O=C1CN(c2nc3cc(Cl)ccc3n2Cc2ccccc2)CCN1,IC50,Plasmodium falciparum [5],> 1 µM
CC(=O)N1CCN(c2nc3cc(Cl)ccc3n2Cc2ccccc2)CC1,IC50,Plasmodium falciparum [5],> 1 µM
Cc1ccc(S(=O)(=O)N2CCN(c3nc4cc(Cl)ccc4n3Cc3ccccc3)CC2)cc1,IC50,Plasmodium falciparum [5],5.26 µM
CCOC(=O)c1[nH]c(C)c(Cc2ccc(OCC)cc2)c1C,IC50,[3],> 100 µM
same,EC50,Plasmodium falciparum [4],0.23 µM
"C[C@H]1[C@H](C)CC[C@]2(C(=O)NCCCN3CCN(CCCNCc4ccc(O)cc4)CC3)CC[C@]3(C)C(=CC[C@@H]4[C@@]5(C)CC[C@H](O)C(C)(C)[C@@H]5CC[C@]43C)[C@H]12 (single isomer, unassigned)",IC50,Plasmodium falciparum [6],0.08 µM
CC[C@H]1OC(=O)[C@H](C)[C@@H](O[C@H]2C[C@@](C)(OC)[C@@H](O)[C@H](C)O2)[C@H](C)[C@@H](O[C@@H]2O[C@H](C)C[C@H](N(C)C)[C@H]2O)[C@](C)(O)C[C@@H](C)CN(C)[C@H](C)[C@@H](O)[C@]1(C)O [AZITHROMYCIN],IC50,Plasmodium falciparum [4],2.65 µM
C[C@H]1[C@H](C)CC[C@]2(C(=O)O)CC[C@]3(C)C(=CC[C@@H]4[C@@]5(C)CC[C@H](O)C(C)(C)[C@@H]5CC[C@]43C)[C@H]12 [URSOLIC ACID],IC50,Plasmodium falciparum [6],52.9 µM
